Reference: patent US11738095B2, “Cyanine-containing compounds for cancer imaging and treatment” (Emory University, priority 2007, dated 2023)
Where two headings read alike, the source gives them in different places.

Legend:
[1] = system: normal prostate fibroblasts (NPF), normal prostate epithelial cells (NPE), marrow stromal cells BMC; test: uptake of IR780 by normal human cells in culture (FIG. 10); type: cell-based
[2] = system: human cancer cells: ARCaPM, C4-2, PC-3, HepG2, MCF-7, RCC, T-24, HeLa, K562, H358; test: uptake of IR780 by human cancer cells in culture (FIG. 10); type: cell-based; conditions: 20 uM, 30 minutes, confocal microscope
Procedure: The uptake of IR780 by human cancer cells in culture was also studied. […] All the cells were cultured with 20 uM IR-780 in basal media (T-medium with 5% fetal bovine serum and 1% antibiotics) for 30 minutes and were imaged under confocal microscope.

[3] = tail vein injection, data not shown
[4] = system: subcutaneous HepG2, C4-2, H358, HeLa, MCF-7 and ARCaPM tumors; test: imaging of subcutaneous human tumors in mice with IR780 (FIG. 13); type: in vivo, mouse; conditions: 5 n mol tail vein, tumors 0.5-1.0 cm
Procedure: Subcutaneous HepG2 (human liver cancer), C4-2 (human prostate androgen-independent and metastatic cancer), H358 (human lung cancer), HeLa (human cervical cancer), MCF-7 (human breast cancer) and ARCaPM (a highly bone and soft tissue metastatic human prostate cancer) cancers were established in live mice prior to the administration of IR-780. The tumor xenografts were measured about 0.5-1.0 cm in diameter at the time of imaging. 5 n mol of IR-780 were given to mice through tail vein and imaged using Kodak multimodal-imaging system. The distribution of IR-780 in tumor tissues was conformed by imaging of frozen sections under confocal microscope. The histopathology of the tumor was confirmed by H/E staining of the frozen tissue specimens and DAPI stained cell nuclei.

ARCaPM cells = test: confocal imaging of IR780 uptake and localization in ARCaPM cells (FIG. 11, 12); type: cell-based, human
Procedure: In FIG. 11, ARCaPM Cells were plated on live-cell imaging chambers from World Precision Instrument (Sarasota, Fla.) overnight. Cells were treated with IR-780 with different concentrations and were imaged using a Perkin-Elmer Ultraview ERS spinning disc confocal microscope. This system was mounted on a Zeiss Axiovert 200 m inverted microscope equipped with a 37° C. stage warmer, incubator, and CO2 perfusion. A x63 or x100 Zeiss oil objective (numerical aperture, 1.4) was used for all images and a Z-stack was created using the attached piezoelectric z-stepper motor. The 633 nm laser line of an […] (set at 60% power) was used to excite the IR-780 organic dye. For each comparison, the exposure time and laser intensity was kept identical for accurate intensity measurement. Pixel intensity was quantitated using Metamorph 6.1 (Universal Imaging, Downingtown, Pa.) and the mean pixel intensity was generated as grey level using the Region Statistics feature on the software.

[5] = Procedure: Mice were injected with 20 μg/Kg of IR783 and IR780 (which was 100× of the imaging dose which was 0.2 μg/Kg) and results were compared for a 28 day period. […] Zero grams means the mouse died. ICG is a FDA approved dye used for several diagnostic purposes. ICG is considered to be nontoxic. ICG is used here as a measure of the toxicity of the tested compounds.
Toxicity test of dye based on body weight gained during the treatment period from 0 to 14 days.

[6] = system: normal prostate fibroblasts, marrow stromal cells BMC, normal vascular endothelial cells VEC, mouse macrophage RAW cells; test: uptake of MHI-148 by normal human or mouse cells in culture (FIG. 1); type: cell-based; conditions: 100 μM, two hours
Procedure: (§1) All the cells were cultured with 100 μM MHI-148 in basal media (T-medium with 5% fetal bovine serum and 1% antibiotics) for two hours and were imaged under an inverted microscope. These conditions are the usual conditions used here unless otherwise specified.

Cancer cell = test: CellTiter 96 Aqueous One Solution Cell Proliferation Assay (FIG. 7); type: cell-based; conditions: different concentrations, 48 hrs, T-medium 5% FBS
Procedure: Cancer cell were plated in 96-well plates in T-medium containing 5% FBS with different concentrations of MHI-148 for 48 hrs of incubation. Cell numbers were measured using CellTiter 96 Aqueous One Solution Cell Proliferation Assay (Promega, Madison, Wis.).

[7] = system: normal prostate epithelial cells NPE and normal human skin epithelial cells HaCaT; test: uptake of MHI-148 by normal epithelial cells in culture (FIG. 1); type: cell-based; conditions: 100 μM, two hours
Procedure: as §1

[8] = system: spontaneously developed prostate tumor; test: imaging of spontaneous prostate tumor in TRAMP transgenic mouse with MHI-148 (FIG. 8); type: in vivo
From the text: 10 nmol of MHI-148 was given to a 46 week-old TRAMP transgenic mouse with spontaneously developed prostate tumor mass and imaged after 4 hrs after MHI-148 injection (panel A). […] Surgical dissection of this mouse confirmed […] was present (panel C).

[9] = system: spontaneous prostate tumor in a TRAMP mouse; test: imaging of spontaneous TRAMP prostate tumor, fresh and after fixation (FIG. 16B, C); type: in vivo; conditions: TRAMP mouse spontaneous prostate tumors, FIG. 16 legend
Procedure: NIR imaging studies were performed to assess pharmacokinetics of the IR783 in vivo. […] This mouse was injected i.p with 0.2 μg/kg IR783 at 0 hrs. […] The dye retention in formalin fixed tissues can be as long as several weeks (data not shown).

[10] = photostability of MHI-148; type: physicochemical
[11] = system: human ARCaPM prostate cancer cells; test: imaging of MHI-148 tagged ARCaPM cells in test tubes (FIG. 2A); type: cell-based; conditions: 1, 10 and 100 μM, incubation 2 hours, excitation 720 nm, emission 850 nm
Procedure: (§2) After incubation for 2 hours, cells were washed 3 times with PBS, harvested by centrifuge and imaged. One million of the MHI-148 tagged ARCaPM cells with different concentrations were injected subcutaneously in the back of the mouse and imaged at the same time (B). […] All the in vitro and in vivo imaging was performed using a Kodak multimodal-imaging system IS2000MM (Kodak) equipped with an excitation bandpass filter at 720 nm and an emission at 850 nm. Exposure time was 30 s per image. The images were analyzed using the imaging station IS2000MM software (Kodak 1D Image Analysis Software; Kodak).

[12] = system: human ARCaPE, ARCaPM, and C4-2 tumors; test: detection of multiple tumors in one mouse with MHI-148 (FIG. 5); type: in vivo; conditions: 10 nmol tail vein, 96 hrs
Procedure: A mouse had 5 pre-established human ARCaPE, ARCaPM, and C4-2 tumors in the back by subcutaneous injection of tumor cells. Four tumors were measured with 0.2-1.0 cm in diameter and one tumor was not detectable by visualization at the time of NHI-148 administration. […] Visual and palpation techniques could only detect four tumors, while MHI-148 (10 nmol), after tail vein administration, clearly gained access to all tumors in the live mouse and allowed tumor images to be detected in all five tumors.

[13] = distribution of MHI-148 in normal mice, in vivo and ex vivo organ imaging (FIG. 3); set-up: species or system mouse; conditions: for fluorescence of isolated liver, kidney and testis: Xenogen
Procedure: MHI-148 (5 nmol) was given by tail vein injection and the MHI-148 distribution followed at 2, 6, and 96 hrs. At the end of this study, mice were sacrificed at 6 or 80 hrs after MHI-148 tail vein administration. […] The isolated tissues and organs excised from mice at 6 hours and 80 hours after receiving 5 nmol MHI-148 were also imaged by the Xenogen machine and the signals were compared by fluorescence intensity.

[14] = system: human cancer cells: LNCaP, ARCaPE, ARCaPM, C4-2, PC-3, HepG2, MG63, MCF-7, RCC, T-24, HeLa, K562, H358; test: uptake of MHI-148 by human cancer cells in culture (FIG. 1); type: cell-based; conditions: 100 μM, two hours, T-medium with 5% fetal bovine serum, inverted microscope
Procedure: as §1

C4-2 tumor = test: imaging of live and necrotic intratibial C4-2 tumors with MHI-148 (FIG. 6); type: in vivo, mouse; conditions: 10 nmol tail vein, imaged after 48 hrs
Procedure: C4-2 cells were injected into both sides of tibia of one mouse. When one tumor was developed to size with visible necrosis and the other tumor still in the fast growing phase, 10 nmol MHI-148 was given through tail vein. After 48 hrs, the mouse was imaged. […] The histopathology of the tumors was confirmed by the H/E stain (see upper right panel).

[15] = system: human ARCaPM prostate cancer cells; test: imaging of MHI-148 tagged ARCaPM cells injected into mice (FIG. 2B, C); type: in vivo, mouse; conditions: one million ARCaPM cells tagged with 10 uM MHI-148
Procedure: as §2

[16] = system: subcutaneous ARCaPM, intratibial C4-2, H358 and K562 tumors; test: imaging of pre-established tumors in live mice with MHI-148 (FIG. 4); type: in vivo, mouse
Procedure: Subcutaneous ARCaPM and intratibial C4-2 tumors were established in live mice prior to the administration of MHI-148. The tumors measured about 0.5-1.0 cm in diameter at the time of imaging. 10 nmol of MHI-148 was given to mice through tail vein and imaged using Kodak multimodal-imaging system. Human lung (H358) and leukemia (K562) cancer cells were injected subcutaneously into one side of the shoulder of mice. When the tumors were about 1-2 cm in diameter, 10 nmol MHI-148 was given through tail vein and tumor images were taken at 96 hrs after MHI-148 administration.

CCCN1/C(=C/C=C2\CCCC(/C=C/C3=[N+](CCC)c4ccccc4C3(C)C)=C2Cl)C(C)(C)c2ccccc21.[I-] [IR780]
uptake of IR-780 ([1]; 20 uM, 30 minutes, confocal microscope): very low uptake
uptake by normal prostate epithelial cells ([1]; data not shown): did not take up the dye
uptake of IR-780 [2]: significant uptake
uptake by normal mouse tissues [3]: failed to uptake IR780
tumor images [4]: clear tumor images can be detected
subcellular localization (ARCaPM cells; co-stained with mitochondrial tracker or lysosome tracker): co-localized with mitochondrial, lysomomal and cytoplasmic compartments
effect of BSP (organic anion transporter inhibitor) on uptake (ARCaPM cells; data not shown): blocked by BSP
dependence of uptake (ARCaPM cells; different concentrations, live-cell confocal imaging): time- and concentration-dependent uptake
body weight ([5]; dose 1X (imaging dose 0.2 μg/Kg), 0 day): 19.00 g
body weight ([5]; dose 1X, 1 day): 19.02 g
body weight ([5]; dose 1X, 2 day): 19.71 g
body weight ([5]; dose 1X, 3 day): 20.01 g
body weight ([5]; dose 1X, 4 day): 20.32 g
body weight ([5]; dose 1X, 5 day): 20.56 g
body weight ([5]; dose 1X, 6 day): 20.97 g
body weight ([5]; dose 1X, 7 day): 21.81 g
body weight ([5]; dose 1X, 14 day): 23.56 g
body weight ([5]; dose 1X, 28 day): 24.44 g
body weight ([5]; dose 10X, 0 day): 20.71 g
body weight ([5]; dose 10X, 1 day): 20.69 g
body weight ([5]; dose 10X, 2 day): 20.70 g
body weight ([5]; dose 10X, 3 day): 21.03 g
body weight ([5]; dose 10X, 4 day): 21.24 g
body weight ([5]; dose 10X, 5 day): 21.89 g
body weight ([5]; dose 10X, 6 day): 22.00 g
body weight ([5]; dose 10X, 7 day): 22.56 g
body weight ([5]; dose 10X, 14 day): 24.00 g
body weight ([5]; dose 10X, 28 day): 24.56 g
body weight ([5]; dose 100X (20 μg/Kg), 0 day): 20.14 g
body weight ([5]; dose 100X, 1 day, zero grams means the mouse died): 0 g
body weight ([5]; dose 100X, 2 day, zero grams means the mouse died): 0 g
body weight ([5]; dose 100X, 3 day, zero grams means the mouse died): 0 g
body weight ([5]; dose 100X, 4 day, zero grams means the mouse died): 0 g
body weight ([5]; dose 100X, 5 day, zero grams means the mouse died): 0 g
body weight ([5]; dose 100X, 6 day, zero grams means the mouse died): 0 g
body weight ([5]; dose 100X, 7 day, zero grams means the mouse died): 0 g
body weight ([5]; dose 100X, 14 day, zero grams means the mouse died): 0 g
body weight ([5]; dose 100X, 28 day, zero grams means the mouse died): 0 g

CC1(C)C(/C=C/C2=C(Cl)C(=C/C=C3/N(CCCCCC(=O)O)c4ccccc4C3(C)C)/CCC2)=[N+](CCCCCC(=O)O)c2ccccc21.[Br-] [MHI-148]
uptake of MHI-148 [6]: failed to yield any time- or concentration-dependent uptake
cancer cell growth (cell numbers) (Cancer cell): inhibition of cancer growth in vitro
uptake of MHI-148 [7]: low uptake
imaging of prostate tumor mass ([8]; 46 week-old TRAMP mouse, 10 nmol, 4 hrs after injection): showed clear tumor in situ
signal in mouse without tumor ([8]; young age TRAMP mouse which harbored no tumor): no signal was detected
stability of dye in formalin fixation [9]: stable in formalin fixation for weeks
photostability [10]: relatively photostable
images of MHI-148 tagged ARCaPM cells in test tubes [11]: intense images can be readily detected
size of smallest tumor imaged [12]: < 2 mm^3
tumors imaged ([12]; mouse with 5 tumors): All five tumors were imaged
fluorescence of isolated liver, kidney and testis ([13]; 5 nmol tail vein, 6 hrs post administration): positive
fluorescence of isolated liver, kidney and testis ([13]; 5 nmol tail vein, 80 hrs post administration): void of any fluorescence signaling
time to clearance from normal organs (liver, kidney, testis, seminal vesicles) ([13]; live animals): ≤ 96 h
MHI-148 uptake by the liver and kidney ([13]; normal mice, 5 nmol tail vein, 2 and 6 hrs): can be detected
MHI-148 in live mice and dissected mouse tissues ([13]; normal mice, 5 nmol tail vein, by 96 hrs): no detectable MHI-148
uptake of MHI-148 [14]: significant uptake
uptake by live C4-2 tumor (right tibia) (C4-2 tumor): shown to uptake MHI-148
uptake by necrotic or dead tumor cells (left side) (C4-2 tumor): failed to uptake MHI-148
image of tagged cells injected into mouse tibia [15]: can be seen in the intratibial space
tumor images ([16]; 10 nmol tail vein, H358 and K562 images at 96 hrs): Clear tumor associated images are seen
fate in tumors versus host ([16]; 96 hrs after administration): accumulated in tumors
